Assay results reported in US12617762B2, “Carboxy derivatives with antiinflamatory properties” (Sitryx Therapeutics Limited, priority 2019, dated 2026).
Like-named read-outs stand apart in the source and are kept apart here.

Tests used:
[1] = system: IL-6 cytokine output from THP-1s; experiment: THP-1 AlphaLISA IL-6 cytokine inhibition assay; type: cell-based; settings: Homo sapiens, THP-1, differentiated THP-1 cells, LPS then nigericin
Protocol: The cytokine inhibition profiles of compounds of formula (I) were determined in a differentiated THP-1 cell assay. All assays were performed in RPMI-1640 growth medium (Gibco), supplemented with 10% fetal bovine serum (FBS; Gibco), 1% penicillin-streptomycin and 1% sodium pyruvate unless specified otherwise. The IL-1β cytokine inhibition assay was run in a background of differentiated THP-1 cells as described below. All reagents described were from Sigma-Aldrich unless specified otherwise. Compounds were prepared as 10 mM DMSO stocks.
THP-1 cells were expanded as a suspension up to 80% confluence in appropriate growth medium. Cells were harvested, suspended, and treated with an appropriate concentration of phorbol 12-myristate 13-acetate (PMA) over a 72 hr period (37° C./5% CO2).
Following 72 hrs of THP-1 cell incubation, cellular medium was removed and replaced with fresh growth media containing 1% of FBS. Working concentrations of compounds were prepared separately in 10% FBS treated growth medium and pre-incubated with the cells for 30 minutes (37° C./5% CO2). Following the 30 minute compound pre-incubation, THP-1s were treated with an appropriate concentration of LPS and the cells were subsequently incubated for a 24 hr period (37° C./5% CO2). An appropriate final concentration of Nigericin was then dispensed into the THP-1 plates and incubated for 1 hour (37° C./5% CO2) before THP-1 supernatants were harvested and collected in separate polypropylene 96-well holding plates.
Reagents from an IL-1β and IL-6 commercial kit (Perkin Elmer) were prepared and run according to the manufacturer's instructions. Subsequently, fluorescence signal detection in a microplate reader was measured (EnVision® Multilabel Reader, Perkin Elmer).
Percentage inhibition was calculated per cytokine by normalising the sample data to the high and low controls used within each plate (+/− LPS respectively).

[2] = system: IL-1β cytokine output from THP-1s; experiment: THP-1 AlphaLISA IL-1β cytokine inhibition assay; type: cell-based; settings: for IC50: Homo sapiens, THP-1, differentiated THP-1 cells, LPS then nigericin; for IL-1β lowering, result in words: THP-1 IL-1β assay
How it was run: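 THP-1 cells differentiated with PMA for 72 h, pre-incubated with compound 30 min, then LPS-primed 24 h and Nigericin-stimulated 1 h (37° C./5% CO2). Supernatant IL-1β measured by AlphaLISA; percentage inhibition normalised to +LPS (high) and −LPS (low) plate controls.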

[3] = Hepatocyte stability assay, human; type: in vitro ADME; settings: human, hepatocytes; for hepatocyte CLint at 10 μM: Hepatocyte stability Clint; for half-life at 10 μM: Hepatocyte stability T½
How it was run: (§1)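 Cells and buffer-only plates are preincubated 10 min at 37° C; 10 μM test compound is then added to hepatocytes (0.5×10^6 cells/mL) and sampled to 60 min. Aliquots are crashed into acetonitrile, spun, and measured by LC-MS/MS to calculate intrinsic clearance from the decline of parent.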

[4] = system: NRF2 (nuclear factor erythroid 2-related factor 2); experiment: NRF2 +/-GSH activation assay (DiscoverX PathHunter NRF2 translocation kit, U2OS cells); type: cell-based; settings: for NRF2 activation +GSH Emax / NRF2 activation −GSH Emax: normalised to DMF high control
How it was run: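 U2OS PathHunter eXpress cells, 24 h post-plating, treated with compound ±GSH (+GSH arm: 30 min compound–GSH pre-incubation, 6 mM working GSH), then 6 h at 37 °C. NRF2 nuclear translocation read by enzyme-fragment-complementation chemiluminescence; % activation normalised to DMF high and untreated low controls.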

[5] = Hepatocyte stability assay, mouse; type: in vitro ADME; settings: mouse, hepatocytes; for hepatocyte CLint at 10 μM: Hepatocyte stability Clint; for half-life at 10 μM: Hepatocyte stability T½
How it was run: as §1

[6] = +GSH, 30 minute compound-GSH pre-incubation, read-out: NRF2 activation +GSH EC50
[7] = −GSH, U2OS PathHunter cells, 6 hours compound treatment, read-out: NRF2 activation −GSH EC50

SMILES | IC50 [1] [µM] | IC50 [2] [µM] | hepatocyte CLint at 10 μM [3] [µL/min/1e6 cells] | half-life at 10 μM [3] [h] | EC50 [4, 6] [µM] | NRF2 activation +GSH Emax ([4]; +GSH) [%] | EC50 [4, 7] [µM] | NRF2 activation −GSH Emax ([4]; −GSH) [%] | hepatocyte CLint at 10 μM [5] [µL/min/1e6 cells] | half-life at 10 μM [5] [h] | IL-1β lowering, result in words [2]
C=C(Cc1nc(CCCCCC(C)C)no1)C(=O)O [Example 68, 2-((3-(6-methylheptyl)-1,2,4-oxadiazol-5-yl)methyl)acrylic acid] | 5.7 | 19.5 |  |  |  |  |  |  |  |  | 
C=C(Cc1nc(C(F)(F)c2ccc(OC(F)(F)F)cc2)no1)C(=O)O [Example 94, 2-((3-(difluoro(4-(trifluoromethoxy)phenyl)methyl)-1,2,4-oxadiazol-5-yl)methyl)acrylic acid] |  | 20.5 | < 3 | > 7.67 | 13.8 | 183 | 7.9 | 208 | 29 | 1.1 | 
C=C(Cc1nc(CCc2ccc(Cl)cc2)no1)C(=O)O [Example 5, 2-((3-(4-chlorophenethyl)-1,2,4-oxadiazol-5-yl)methyl)acrylic acid] |  | 45.3 | 8 | 2.9 | 50.4 | 63 | 42.4 | 74 | 48 | 0.667 | 
C=C(Cc1nc(C2(c3ccc(OC(F)(F)F)cc3)CC2)no1)C(=O)O [Example 49, 2-((3-(1-(4-(trifluoromethoxy)phenyl)cyclopropyl)-1,2,4-oxadiazol-5-yl)methyl)acrylic acid] |  | 12.4 | 8 | 2.87 | 57.5 | 56 | 49.2 | 109 | 15 | 1.43 | 
C=C(Cc1nc(CCCCCCC(C)(F)F)no1)C(=O)O [Example 31, 2-((3-(7,7-difluorooctyl)-1,2,4-oxadiazol-5-yl)methyl)acrylic acid] |  | > 100 | 5 | 4.1 | 40.9 | 127 | 35 | 178 | 42 | 0.45 | not effective
C=C(Cc1nc(C2(c3cc(Cl)c(F)c(Cl)c3)CC2)no1)C(=O)O [Example 133, 2-((3-(1-(3,5-dichloro-4-fluorophenyl)cyclopropyl)-1,2,4-oxadiazol-5-yl)methyl)acrylic acid] |  | 1.6 | 73 | 0.317 | 4.2 | 281 | 3.5 | 234 | 338 | 0.0667 | 
C=C(Cc1nc(Cc2ccc(Cl)c(Cl)c2)no1)C(=O)O [Example 14, 2-((3-(3,4-dichlorobenzyl)-1,2,4-oxadiazol-5-yl)methyl)acrylic acid] |  | > 100 | 6 | 4 | 52.2 | 46 | 21.8 | 78 | 18 | 1.2 | not effective
C=C(Cc1nc(Cc2ccc(OC(F)(F)F)cc2)no1)C(=O)O [Example 46, 2-((3-(4-(trifluoromethoxy)benzyl)-1,2,4-oxadiazol-5-yl)methyl)acrylic acid] |  | 41.9 | < 3 | > 7.45 | 36.2 | 51 | 31.1 | 106 | 17 | 1.27 | 
C=C(Cc1nc(C2(c3ccc(OC)cc3)CC2)no1)C(=O)O [Example 45, 2-((3-(1-(4-methoxyphenyl)cyclopropyl)-1,2,4-oxadiazol-5-yl)methyl)acrylic acid] |  | 38.8 | 8 | 2.97 | > 100 | 9 | > 100 | 55 | 33 | 0.817 | 
[2H]C([2H])([2H])C([2H])([2H])C([2H])([2H])C([2H])([2H])C([2H])([2H])C([2H])([2H])C([2H])([2H])C([2H])([2H])c1noc(CC(=C)C(=O)O)n1 [Example 34, 2-((3-(octyl-d17)-1,2,4-oxadiazol-5-yl)methyl)acrylic acid] |  | 9.5 | 78 | 0.3 | 4.7 | 167 | 3.7 | 222 | 374 | 0.0667 | 
C=C(Cc1ccccc1Cl)C(=O)O [2-(2-chlorobenzyl)acrylic acid, reference compound] |  | > 100 | 21 |  | > 100 | 9 | > 100 | 2 | 95 |  | 
C=C(Cc1nc(C2(c3ccc(Cl)cc3)CCC2)no1)C(=O)O [Example 25, 2-((3-(1-(4-chlorophenyl)cyclobutyl)-1,2,4-oxadiazol-5-yl)methyl)acrylic acid] |  | 64.1 | 12 | 1.73 | > 100 | 31 | > 100 | 32 | 17 | 1.5 | 
C=C(Cc1nc(Cc2ccc(CCCCC)cc2)no1)C(=O)O [Example 28, 2-((3-(4-pentylbenzyl)-1,2,4-oxadiazol-5-yl)methyl)acrylic acid] |  | 7.7 | 103 | 0.2 | 4 | 201 | 3 | 264 | > 460 | < 0.05 | 
C=C(Cc1nc(C2(c3cccc(Cl)c3)CC2)no1)C(=O)O [Example 21, 2-((3-(1-(3-chlorophenyl)cyclopropyl)-1,2,4-oxadiazol-5-yl)methyl)acrylic acid] |  | > 100 | 21 | 1.38 | 44 | 81 | 31.7 | 125 | 62 | 0.467 | not effective
C=C(Cc1nc(-c2ccc(CCCC)cc2)no1)C(=O)O [Example 18, 2-((3-(4-butylphenyl)-1,2,4-oxadiazol-5-yl)methyl)acrylic acid] |  | 15.3 | 159 | 0.183 | 3.8 | 159 | 3.5 | 207 | > 460 | < 0.05 | 
C=C(Cc1nc(Cc2ccc3ccccc3c2)no1)C(=O)O [Example 9, 2-((3-(naphthalen-2-ylmethyl)-1,2,4-oxadiazol-5-yl)methyl)acrylic acid] |  | 54.7 | 7 | 3.02 | 69.9 | 44 | 42.7 | 51 | 41 | 0.417 | 
C=C(Cc1nc(-c2ccc(CCCCC)cc2)no1)C(=O)O [Example 23, 2-((3-(4-pentylphenyl)-1,2,4-oxadiazol-5-yl)methyl)acrylic acid] |  | 4.6 | 321 | 0.0833 | 2.2 | 162 | 1.6 | 209 | > 460 | < 0.05 | 
